Measurements from patent EP3262036B1, “THERAPEUTIC PYRIDAZINE COMPOUNDS AND USES THEREOF” (priority 2015, dated 2016).

biological target: BRG1 (Homo sapiens, UniProt P51532); assay: biochemical; format: binding; details: BRG1 HTRF IC50 (µM)
Description: IC50 measurements for inhibitors using BRG1 TR-FRET Binding Assay

BRG1, sequence (P51532 1448-1575): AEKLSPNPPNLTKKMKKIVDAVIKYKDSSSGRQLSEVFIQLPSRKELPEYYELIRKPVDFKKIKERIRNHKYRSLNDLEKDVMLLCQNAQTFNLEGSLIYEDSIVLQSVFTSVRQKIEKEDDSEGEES

Structure (SMILES)	IC50 [µM]
Nc1nnc(-c2ccccc2O)cc1N1CCC2(CC1)C(=O)Nc1ccccc12 [Example 78, 1'-(3-amino-6-(2-hydroxyphenyl)pyridazin-4-yl)spiro[indoline-3,4'-piperidin]-2-one]	0.0758
CNC(=O)CN1C2CCC1CN(c1cc(-c3ccccc3O)nnc1N)C2 [Example 79, 2-(3-(3-amino-6-(2-hydroxyphenyl)pyridazin-4-yl)-3,8-diazabicyclo[3.2.1]octan-8-yl)-N-methylacetamide]	0.139
Nc1nnc(-c2ccccc2O)cc1N1CC2CCC(C1)N2c1ccc(C(=O)O)nc1 [Example 88, 5-(3-(3-amino-6-(2-hydroxyphenyl)pyridazin-4-yl)-3,8-diazabicyclo[3.2.1]octan-8-yl)picolinic acid]	0.218
CN(C)C1CCN(c2cc(-c3ccccc3O)nnc2N)CC1 [Example 91, 2-[6-amino-5-[4-(dimethylamino)-1-piperidyl]pyridazin-3-yl]phenol]	0.0929
C[C@H]1CN(c2cc(-c3ccccc3O)nnc2N)CCN1Cc1nccn1C [Example 92, (S)-2-(6-amino-5-(3-methyl-4-((1-methyl-1H-imidazol-2-yl)methyl)piperazin-1-yl)pyridazin-3-yl)phenol]	0.0185
C[C@@H]1CN(c2cc(-c3ccccc3O)nnc2N)CCN1Cc1nccn1C [Example 93, (R)-2-(6-amino-5-(3-methyl-4-((1-methyl-1H-imidazol-2-yl)methyl)piperazin-1-yl)pyridazin-3-yl)phenol]	0.0238
CC(C)n1cc(CN2CCN(c3cc(-c4ccccc4O)nnc3N)CC2)cn1 [Example 94, 2-[6-amino-5-[4-[(1-isopropylpyrazol-4-yl)methyl]piperazin-1-yl]pyridazin-3-yl]phenol]	0.122
N#Cc1cccc(CN2CCN(c3cc(-c4ccccc4O)nnc3N)CC2)c1 [Example 96, 3-[[4-[3-amino-6-(2-hydroxyphenyl)pyridazin-4-yl]piperazin-1-yl]methyl]benzonitrile]	0.0569
Nc1nnc(-c2ccccc2O)cc1N1CCN(Cc2ncco2)CC1 [Example 97, 2-[6-amino-5-[4-(oxazol-2-ylmethyl)piperazin-1-yl]pyridazin-3-yl]phenol]	0.0714
Nc1nnc(-c2ccccc2O)cc1N1CCN(Cc2ccncc2)CC1 [Example 98, 2-[6-amino-5-[4-(4-pyridylmethyl)piperazin-1-yl]pyridazin-3-yl]phenol]	0.0796
Cn1ccnc1CN1CCN(c2cc(-c3ccccc3O)nnc2N)CC1 [Example 99, 2-[6-amino-5-[4-[(1-methylimidazol-2-yl)methyl]piperazin-1-yl]pyridazin-3-yl]phenol]	0.0324
Cc1cc(CN2CCN(c3cc(-c4ccccc4O)nnc3N)CC2)no1 [Example 101, 2-[6-amino-5-[4-[(5-methylisoxazol-3-yl)methyl]piperazin-1-yl]pyridazin-3-yl]phenol]	0.0653
Nc1nnc(-c2ccccc2O)cc1N1CCN(Cc2n[nH]c3ccccc23)CC1 [Example 102, 2-[6-amino-5-[4-(1H-indazol-3-ylmethyl)piperazin-1-yl]pyridazin-3-yl]phenol]	0.0259
Cn1ncc2c(CN3CCN(c4cc(-c5ccccc5O)nnc4N)CC3)cccc21 [Example 103, 2-[6-amino-5-[4-[(1-methylindazol-4-yl)methyl]piperazin-1-yl]pyridazin-3-yl]phenol]	0.0289
Cc1nc(CN2CCN(c3cc(-c4ccccc4O)nnc3N)CC2)co1 [Example 104, 2-[6-amino-5-[4-[(2-methyloxazol-4-yl)methyl]piperazin-1-yl]pyridazin-3-yl]phenol]	0.0569
Cn1ncc2cc(CN3CCN(c4cc(-c5ccccc5O)nnc4N)CC3)ccc21 [Example 105, 2-[6-amino-5-[4-[(1-methylindazol-5-yl)methyl]piperazin-1-yl]pyridazin-3-yl]phenol]	0.0279
CC(C)(C)OC(=O)N1CCc2cc(CN3CCN(c4cc(-c5ccccc5O)nnc4N)CC3)ccc21 [Example 106, tert-butyl 5-[[4-[3-amino-6-(2-hydroxyphenyl)pyridazin-4-yl]piperazin-1-yl]methyl]indoline-1-carboxylate]	0.689
Cn1cc(CN2CCN(c3cc(-c4ccccc4O)nnc3N)CC2)cn1 [Example 107, 2-[6-amino-5-[4-[(1-methylpyrazol-4-yl)methyl]piperazin-1-yl]pyridazin-3-yl]phenol]	0.0877
CC1CN(c2cc(-c3ccccc3O)nnc2N)CCN1S(=O)(=O)c1ccccc1 (stereo not shown) [Example 109, 2-(6-amino-5-(3-methyl-4-(phenylsulfonyl)piperazin-1-yl)pyridazin-3-yl)phenol]	0.0176
CCS(=O)(=O)N1CCN(c2cc(-c3ccccc3O)nnc2N)CC1C (stereo not shown) [Example 110, 2-(6-amino-5-(4-(ethylsulfonyl)-3-methylpiperazin-1-yl)pyridazin-3-yl)phenol]	0.0219

Structure (SMILES)	IC50 [µM]
CC1CN(c2cc(-c3ccccc3O)nnc2N)CCN1S(=O)(=O)C1CC1 (stereo not shown) [Example 111, 2-(6-amino-5-(4-(cyclopropylsulfonyl)-3-methylpiperazin-1-yl)pyridazin-3-yl)phenol]	0.0197
CC1(C)CN(c2cc(-c3ccccc3O)nnc2N)CCN1S(C)(=O)=O [Example 112, 2-(6-amino-5-(3,3-dimethyl-4-(methylsulfonyl)piperazin-1-yl)pyridazin-3-yl)phenol]	0.0307
COCCS(=O)(=O)N1CCN(c2cc(-c3ccccc3O)nnc2N)C[C@H]1C [Example 117, (R)-2-(6-amino-5-(4-((2-methoxyethyl)sulfonyl)-3-methylpiperazin-1-yl)pyridazin-3-yl)phenol]	0.0535
C[C@@H]1CN(c2cc(-c3ccccc3O)nnc2N)CCN1S(=O)(=O)c1nccn1C [Example 118, (R)-2-(6-amino-5-(3-methyl-4-((1-methyl-1H-imidazol-2-yl)sulfonyl)piperazin-1-yl)pyridazin-3-yl)phenol]	0.0281
CC(C)(O)C(=O)N1C2CCC1CN(c1cc(-c3ccccc3O)nnc1N)C2 [Example 120, 1-(3-(3-amino-6-(2-hydroxyphenyl)pyridazin-4-yl)-3,8-diazabicyclo[3.2.1]octan-8-yl)-2-hydroxy-2-methylpropan-1-one]	0.0444
CN(C)C(=O)N1C2CCC1CN(c1cc(-c3ccccc3O)nnc1N)C2 [Example 121, 3-(3-amino-6-(2-hydroxyphenyl)pyridazin-4-yl)-N,N-dimethyl-3,8-diazabicyclo[3.2.1]octane-8-carboxamide]	0.0225
Cc1noc(C)c1C(=O)N1CCN(c2cc(-c3ccccc3O)nnc2N)CC1C (stereo not shown) [Example 123, (4-(3-amino-6-(2-hydroxyphenyl)pyridazin-4-yl)-2-methylpiperazin-1-yl)(3,5-dimethylisoxazol-4-yl)methanone]	0.0879
CC1CN(c2cc(-c3ccccc3O)nnc2N)CCN1C(=O)C1CC1c1ccccc1 (stereo not shown) [Example 124, (4-(3-amino-6-(2-hydroxyphenyl)pyridazin-4-yl)-2-methylpiperazin-1-yl)(2-phenylcyclopropyl)methanone]	0.0258
CC1CN(c2cc(-c3ccccc3O)nnc2N)CCN1C(=O)Cc1ccccn1 (stereo not shown) [Example 125, 1-(4-(3-amino-6-(2-hydroxyphenyl)pyridazin-4-yl)-2-methylpiperazin-1-yl)-2-(pyridin-2-yl)ethan-1-one]	0.0426
Nc1nnc(-c2ccccc2O)cc1N1CC2CCC(C1)N2C(=O)c1cncs1 [Example 126, (3-(3-amino-6-(2-hydroxyphenyl)pyridazin-4-yl)-3,8-diazabicyclo[3.2.1]octan-8-yl)(thiazol-5-yl)methanone]	0.0203
CC(=O)N1[C@@H](C)CN(c2cc(-c3ccccc3O)nnc2N)C[C@@H]1C [Example 127, 1-((2S,6S)-4-(3-amino-6-(2-hydroxyphenyl)pyridazin-4-yl)-2,6-dimethylpiperazin-1-yl)ethan-1-one]	0.369
CC(=O)N1[C@H](C)CN(c2cc(-c3ccccc3O)nnc2N)C[C@H]1C [Example 128, 1-((2R,6R)-4-(3-amino-6-(2-hydroxyphenyl)pyridazin-4-yl)-2,6-dimethylpiperazin-1-yl)ethan-1-one]	0.505
CC1CN(c2cc(-c3ccccc3O)nnc2N)CCN1C(=O)C(C)(C)O (stereo not shown) [Example 134, 1-(4-(3-amino-6-(2-hydroxyphenyl)pyridazin-4-yl)-2-methylpiperazin-1-yl)-2-hydroxy-2-methylpropan-1-one]	0.0349
CC1CN(c2cc(-c3ccccc3O)nnc2N)CCN1C(=O)c1cccnc1 (stereo not shown) [Example 135, (4-(3-amino-6-(2-hydroxyphenyl)pyridazin-4-yl)-2-methylpiperazin-1-yl)(pyridin-3-yl)methanone]	0.0446
Cc1cc(CC(=O)N2CCN(c3cc(-c4ccccc4O)nnc3N)CC2C)on1 (stereo not shown) [Example 136, 1-(4-(3-amino-6-(2-hydroxyphenyl)pyridazin-4-yl)-2-methylpiperazin-1-yl)-2-(3-methylisoxazol-5-yl)ethan-1-one]	0.0444
CC1CN(c2cc(-c3ccccc3O)nnc2N)CCN1C(=O)c1cncs1 (stereo not shown) [Example 138, (4-(3-amino-6-(2-hydroxyphenyl)pyridazin-4-yl)-2-methylpiperazin-1-yl)(thiazol-5-yl)methanone]	0.0126
CC(=O)N1[C@H](C)CN(c2cc(-c3ccccc3O)nnc2N)C[C@@H]1C [Example 139, 1-((2S,6R)-4-(3-amino-6-(2-hydroxyphenyl)pyridazin-4-yl)-2,6-dimethylpiperazin-1-yl)ethan-1-one]	0.106
CC(C)[C@H](N)C(=O)N1CCN(c2cc(-c3ccccc3O)nnc2N)CC1C (stereo partly drawn) [Example 140, (2S)-2-amino-1-(4-(3-amino-6-(2-hydroxyphenyl)pyridazin-4-yl)-2-methylpiperazin-1-yl)-3-methylbutan-1-one]	0.0475
C[C@@H]1CN(c2cc(-c3ccccc3O)nnc2N)CCN1C(=O)[C@@H]1CCCO1 [Example 141, ((R)-4-(3-amino-6-(2-hydroxyphenyl)pyridazin-4-yl)-2-methylpiperazin-1-yl)((S)-tetrahydrofuran-2-yl)methanone]	0.033
C[C@H]1CN(c2cc(-c3ccccc3O)nnc2N)CCN1C(=O)[C@@H]1CCCO1 [Example 142, ((S)-4-(3-amino-6-(2-hydroxyphenyl)pyridazin-4-yl)-2-methylpiperazin-1-yl)((S)-tetrahydrofuran-2-yl)methanone]	0.0975
